# Patent US20240058335A1, “METHODS FOR TREATMENT OF CANCER USING ABL INHIBITORS AND DRUGS TARGETING THE MEVALONATE PATHWAY” (Duke University, priority 2021, published 2024)
# System: PC9 cells
# Experiment: Pooled metabolically focused CRISPR/Cas9 loss-of-function screen with GNF5 (gene-level three scores)
# Type: cell-based, human
# Method: POOLED CRISPR SCREEN. PC9 cells were seeded into 12, six-well plates at 0.25e6 cells/well. A separate plate was also prepared for no puromycin and puromycin controls of non-transduced cells. Cells were transduced at a MOI of 0.2. 24 hours after viral transduction, cells were replated into puromycin-containing media. A sample was collected at 48 hours of puromycin exposure to confirm library coverage in the transduced population. Transduced cells were expanded in puromycin for a total of 10 days prior to drug introduction, at which point the transduced cell population was split into vehicle (DMSO) and GNF5 treatment conditions and maintained for up to two weeks. Cells were treated with 2 μM GNF5 which corresponded to 20-30% loss in cell viability following a 3-day dose response assay. Cells were counted, replated, and drug replenished every day. At any given point during the screen, each replicate was represented by a minimum of 12E6 cells, sufficient to provide 1000×coverage of the library (1000 cells per unique sgRNA). Samples of 25E6 cells were collected upon screen initiation, termination, and at weekly intervals. Following completion of the screens, DNA was extracted (DNeasy Blood & Tissue Kit, QIAGEN) and prepared for sequencing as previously described.
# SCREEN ANALYSIS. Deep sequencing was performed on an Illumina Nextseq platform (75 bp, paired-ended) to identify differences in library composition. All sequencing was performed by the Duke University genome sequencing facility. Barcoded reads were mapped to the guide RNA library using bcSeq to obtain the counts for each guide RNA. Determinations of genetic essentiality and drug sensitization/resistance were made by evaluating differential guide compositions between the initial population and subsequent drug-treated and vehicle-treated cells populations. Briefly, the fractional representation (FR) for the guide reads within a sample was normalized to the total reads attributed to that sample. A direct comparison between two samples was represented by the quotient of the respective FRs in the log 2 scale, which is termed the depletion metric (DM). The guide-level DMs for each gene were then collapsed to gene-level scores by taking the average of the top three most depleted constructs resulting in a biased analysis focused on depleted genes. Genes represented by fewer than 5 guides per condition were excluded from analysis. In the 2,322-gene library, 7 genes (representing 0.3% of the total library) were excluded. Genetic essentiality was calculated by considering the depletion/enrichment of the vehicle-treated (DSMO) population over time (DMSO final/DSMO initial). Drug sensitization/resistance was calculated by considering the depletion/enrichment of the drug-treated population relative to the vehicle-treated population (Drug final/DMSO final). All depletion/enrichment effects are reported as log 2 ratios. All analyses were conducted using the R statistical environment (https://www.r-project.org/) along with extension packages from the comprehensive R archive network (CRAN; available at cran.r-project.org/) and the Bioconductor project. The analyses were carried out with adherence to the principles of reproducible analysis using the knitr package for generation of dynamic reports and gitlab for source code management. The code for replicating the statistical analysis was made accessible through a public source code repository, available at gitlab.oit.duke.edu/dcibioinformatics/pubs/pendergast-crispr-barcode.
# Because many metabolic genes are known to be essential to cellular viability, determining the effect of cell-essential genetic loss on apoptosis is difficult. […] The remaining cell-essential genes are captured by the screen.
# Metabolically focused CRISPR/Cas9 loss-of-function screen identifies HMGCR inhibition with statin therapy as an apoptotic sensitizer in lung cancer cells. […]
compound,measurement,setting,value
O=C(NCCO)c1cccc(-c2cc(Nc3ccc(OC(F)(F)F)cc3)ncn2)c1 [GNF5],log2 TS,CCBL1 knockout,−0.2362
same,log2 TS,CCBL2 knockout,−0.00176
same,log2 TS,CCDC102B knockout,−0.3186
same,log2 TS,CCDC155 knockout,−0.128
same,log2 TS,CDA knockout,−0.3678
same,log2 TS,CDADC1 knockout,−0.189
same,log2 TS,CDC14A knockout,−0.5269
same,log2 TS,CDC14B knockout,−0.3312
same,log2 TS,CDC25A knockout,−0.3125
same,log2 TS,CDC25B knockout,−0.5769
same,log2 TS,CDC25C knockout,0.02041
same,log2 TS,CDKN3 knockout,−0.2304
same,log2 TS,CDO1 knockout,−0.3626
same,log2 TS,CECR1 knockout,0.1378
same,log2 TS,CEL knockout,−0.2626
same,log2 TS,CERK knockout,−0.2067
same,log2 TS,CERKL knockout,−0.4755
same,log2 TS,CERS1 knockout,−0.5675
same,log2 TS,CERS2 knockout,−0.1757
same,log2 TS,CERS3 knockout,−0.3966
same,log2 TS,CERS4 knockout,−0.0552
same,log2 TS,CERS5 knockout,−0.09954
same,log2 TS,CERS6 knockout,−0.2316
same,log2 TS,CES1 knockout,−0.1103
same,log2 TS,CES2 knockout,−0.115
same,log2 TS,CES3 knockout,−0.1816
same,log2 TS,CFTR knockout,−0.552
same,log2 TS,CHAT knockout,0.03889
same,log2 TS,CHI3L1 knockout,−0.08904
same,log2 TS,CHI3L2 knockout,−0.203
same,log2 TS,CHIA knockout,−0.1854
same,log2 TS,CHID1 knockout,−0.2305
same,log2 TS,CHIT1 knockout,−0.1013
same,log2 TS,CHKA knockout,0.1899
same,log2 TS,CHPF knockout,−0.1196
same,log2 TS,CHPT1 knockout,0.05664
same,log2 TS,CHRNA1 knockout,−0.2091
same,log2 TS,CHRNA2 knockout,−0.09543
same,log2 TS,CHRNA3 knockout,0.193
same,log2 TS,CHRNA4 knockout,−0.2119
same,log2 TS,CHRNA5 knockout,−0.1927
same,log2 TS,CHRNA6 knockout,−0.00193
same,log2 TS,CHRNA7 knockout,−0.4166
same,log2 TS,CHRNA9 knockout,−0.2542
same,log2 TS,CHRNA10 knockout,−0.09517
same,log2 TS,CHRNB1 knockout,−0.07599
same,log2 TS,CHRNB2 knockout,−0.2245
same,log2 TS,CHRNB3 knockout,−0.3189
same,log2 TS,CHRNB4 knockout,−0.4141
same,log2 TS,CHRND knockout,−0.5686
same,log2 TS,CHRNE knockout,−0.137
same,log2 TS,CHRNG knockout,0.05205
same,log2 TS,CHST1 knockout,−0.0245
same,log2 TS,CHST6 knockout,−0.3091
same,log2 TS,CKB knockout,−0.247
same,log2 TS,CKM knockout,−0.3126
same,log2 TS,CKMT2 knockout,−0.2525
same,log2 TS,CLC knockout,−0.314
same,log2 TS,CLCA1 knockout,−0.142
same,log2 TS,CLCA2 knockout,−0.4614
same,log2 TS,CLCA4 knockout,0.05396
same,log2 TS,CLCN1 knockout,−0.1326
same,log2 TS,CLCN2 knockout,−0.1747
same,log2 TS,CLCN3 knockout,−0.494
same,log2 TS,CLCN4 knockout,0.0428
same,log2 TS,CLCN5 knockout,−0.4161
same,log2 TS,CLCN6 knockout,−0.3635
same,log2 TS,CLCN7 knockout,−0.1319
same,log2 TS,CLCNKA knockout,−0.1822
same,log2 TS,CLCNKB knockout,−0.3352
same,log2 TS,CLIC1 knockout,−0.09123
same,log2 TS,CLIC2 knockout,−0.1159
same,log2 TS,CLIC3 knockout,0.07472
same,log2 TS,CLIC4 knockout,−0.06827
same,log2 TS,CLIC5 knockout,−0.3935
same,log2 TS,CLIC6 knockout,−0.02678
same,log2 TS,CLYBL knockout,0.05734
same,log2 TS,CMAS knockout,−0.3056
same,log2 TS,CMPK1 knockout,−0.1483
same,log2 TS,CNDP1 knockout,−0.1314
same,log2 TS,CNDP2 knockout,−0.1743
same,log2 TS,CNGA1 knockout,−0.1817
same,log2 TS,CNGA2 knockout,−0.3543
same,log2 TS,CNGA3 knockout,0.05484
same,log2 TS,CNGA4 knockout,−0.3821
same,log2 TS,CNGB1 knockout,−0.4165
same,log2 TS,CNGB3 knockout,−0.1968
same,log2 TS,COA5 knockout,−0.2719
same,log2 TS,COASY knockout,0.06804
same,log2 TS,COMT knockout,−0.2352
same,log2 TS,COMTD1 knockout,−0.123
same,log2 TS,COQ3 knockout,−0.1115
same,log2 TS,COQ5 knockout,−0.3619
same,log2 TS,COQ6 knockout,−0.1357
same,log2 TS,COQ9 knockout,0.009879
same,log2 TS,COX10 knockout,−0.3233
same,log2 TS,COX11 knockout,−0.3148
same,log2 TS,COX15 knockout,−0.6246
same,log2 TS,COX17 knockout,−0.66
same,log2 TS,COX20 knockout,−0.2164
